31 compounds from patent US4588722A, “N-(4-piperidinyl) bicyclic condensed 2-imidazolamine derivatives” (priority 1984, dated 1986) can be followed below.

Counter-ions that a name gives are not always drawn.

The first experiment relates to compound 48/80-induced lethality in rats. Briefly: Protection of rats from compound 48/80-induced lethality. The class given is in vivo, rat (male, inbred Wistar strain). The conditions noted are these: Rattus norvegicus, 4 h, read-out: Compound 48/80 lethality test in rats-ED50. An excerpt:
PROTECTION OF RATS FROM COMPOUND 48/80-INDUCED LETHALITY
Compound 48/80, a mixture of oligomers obtained by condensation of 4-methoxy-N-methylbenzeneethanamine and formaldehyde has been described as a potent histamine releasing agent (Int. Arch. Allergy, 13, 336 (1958)). The protection from compound 48/80-induced lethal circulatory collapse appears to be a simple way of evaluating quantitatively the antihistaminic activity of test compounds. Male rats of an inbred Wistar strain, weighing 240-260 g were used in the experiment. After overnight starvation the rats were transferred to conditioned laboratories (temp.=21±1° C., relative humidity=65±5%). The rats were treated subcutaneously or orally with a test compound or with the solvent (NaCl solution, 0.9%). One hour after treatment there was injected intravenously compound 48/80, freshly dissolved in water, at a dose of 0.5 mg/kg (0.2 ml/100 g of body weight). In control experiments, wherein 250 solvent-treated animals were injected with the standard dose of compound 48/80, not more than 2.8% of the animals survived after 4 hours. Survival after 4 hours is therefore considered to be a safe criterion of a protective effect of drug administration.
Said ED50 -values are the values in mg/kg body weight at which the tested compounds protect 50% of the tested animals against compound 48/80-induced lethality.
With `N=C(NCCN1CCC(Nc2nc3ccccc3n2Cc2ccc(F)cc2)CC1)N[N+](=O)[O-]` [Compound 23, N-[2-[4-[[1-[(4-fluorophenyl)methyl]-1H-benzimidazol-2-yl]amino]-1-piperidinyl]ethyl]-N'-nitroguanidine], the ED50 is 0.08 mg/kg.

Staying with this experiment, now noted: Rattus norvegicus; test compound subcutaneously or orally (route of each value not given) 1 hour before compound 48/80 0.5 mg/kg intravenously; dose protecting 50% of animals, survival after 4 hours; read-out: Compound 48/80 lethality test in rats-ED50.
With `CNC(=O)N1CCC(N2CCC(Nc3nc4ccccc4n3Cc3ccc(F)cc3)CC2)CC1` [Compound 36, 4-[[1-(4-fluorophenyl)methyl]-1H-benzimidazol-2-ylamino]-N-methyl-[1,4'-bipiperidine]-1'-carboxamide monohydrate], the ED50 came out at 0.16 mg/kg.
With `OCc1ccc(CN2CCC(Nc3nc4ccccc4n3Cc3ccc(F)cc3)CC2)o1` [Compound 47, 5-[[4-[[1-[(4-fluorophenyl)methyl]-1H-benzimdazol-2-yl]amino]-1-piperidinyl]methyl]-2-furanmethanol], the ED50 is 0.08 mg/kg.
With `NNC(=S)NCCN1CCC(Nc2nc3ccccc3n2Cc2ccc(F)cc2)CC1.O` [Compound 34, N-[2-[4-[[1-[(4-fluorophenyl)methyl]-1H-benzimidazol-2-yl]amino]-1-piperidinyl]ethyl]hydrazinecarbothioamide monohydrate], the ED50 was determined as 0.02 mg/kg.
For `O=CNCCN1CCC(Nc2nc3ccccc3n2Cc2ccc(F)cc2)CC1` [Compound 45, N-[2-[4-[[1-[(4-fluorophenyl)methyl]-1H-benzimidazol-2-yl]amino]-1-piperidinyl]ethyl]formamide], the ED50 worked out at 0.08 mg/kg.
As to `CSC(=NC#N)NCCN1CCC(Nc2nc3cccnc3n2Cc2ccc(F)cc2)CC1` [Compound 21, S-methyl N'-cyano-N-[2-[4-[[3-[(4-fluorophenyl)methyl]-3H-imidazo[4,5-b]pyridin-2-yl]amino]-1-piperidinyl]ethyl]carbamimidothioate], the ED50 came to 0.16 mg/kg.
In the case of `CC(=O)Nc1ccccc1C(=O)NCCN1CCC(Nc2nc3ccccc3n2Cc2ccc(F)cc2)CC1` [Compound 51, 2-(acetylamino)-N-[2-[4-[[1-[(4-fluorophenyl)methyl]-1H-benzimidazol-2-yl]amino]-1-piperidinyl]ethyl]benzamide], the ED50 was determined as 0.16 mg/kg.
With `NC(=O)Nc1ccc(CCN2CCC(Nc3nc4ccccc4n3Cc3ccc(F)cc3)CC2)cc1` [Compound 56], the ED50 is 0.04 mg/kg.
Take `CCN(CC)C(=S)NCCN1CCC(Nc2nc3ccccc3n2Cc2ccc(F)cc2)CC1` [Compound 32, N,N-diethyl-N'-[2-[4-[[1-[(4-fluorophenyl)methyl]-1H-benzimidazol-2-yl]-amino]-1-piperidinyl]ethyl]thiourea]: the ED50 worked out at 0.16 mg/kg.
For `N#CN=C(NCCN1CCOCC1)NCCN1CCC(Nc2nc3ccccc3n2Cc2ccc(F)cc2)CC1` [Compound 26, N"-cyano-N-[2-[4-[[1-[(4-fluorophenyl)methyl]-1H-benzimidazol-2-yl]-aminol]-1-piperidinyl]ethyl]-N'-[2-(4-morpholinyl)ethyl]guanidine monohydrate], the ED50 amounted to 0.16 mg/kg.
On the same count and under the same terms, with `Br.Br.Oc1ccc(CCN2CCC(Nc3nc4ccccc4n3Cc3cscn3)CC2)cc1` [Compound 59, 4-[2-[4-[[1-(4-thiazolylmethyl)-1H-benzimidazol-2-yl]amino]-1-piperidinyl]ethyl]phenol dihydrobromide] the figure was 0.08 mg/kg; with `Cc1nccn1CCN1CCC(Nc2nc3ccccc3n2Cc2ccc(F)cc2)CC1` [Compound 20, 1-[(4-fluorophenyl)methyl]-N-[1-[2-(2-methyl-1H-imidazol-1-yl)ethyl]-4-piperidinyl]-1H-benzimidazol-2-amine], 0.31 mg/kg.
Take `C=COCCN1CCC(Nc2nc3ccccc3n2Cc2ccc(F)cc2)CC1` [Compound 1, N-[1-[2-(ethenyloxy)ethyl]-4-piperidinyl]-1-(4-fluorophenylmethyl)-1H-benzimidazol-2-amine]: the ED50 amounted to 0.08 mg/kg.
`O=c1oc2ccccc2cc1CCN1CCC(Nc2nc3ccccc3n2Cc2ccccn2)CC1` [Compound 9, 3-[2-[4-[[1-(2-pyridinylmethyl)-1H-benzimidazol-2-yl]amino]-1-piperidinyl]ethyl]-2H-1-benzopyran-2-one dihydrochloride.dihydrate]: the ED50 worked out at 0.08 mg/kg.
Same read-out and setting: next, `O=c1oc2ccccc2cc1CCN1CCC(Nc2nc3ccccc3n2Cc2cccs2)CC1` [Compound 8, 3-[2-[4-[[1-(2-thienylmethyl)-1H-benzimidazol-2-yl]amino]-1-piperidinyl]ethyl]-2H-1-benzopyran-2-one]: 0.16 mg/kg; `O=c1oc2ccccc2cc1CCN1CCC(Nc2nc3ccccc3n2Cc2ccc(F)cc2)CC1` [Compound 12, 3-[2-[4-[[1-[(4-fluorophenyl)methyl]-1H-benzimidazol-2-yl]amino]-1-piperidinyl]ethyl]-2H-1-benzopyran-2-one]: 0.16 mg/kg.
Regarding `Fc1ccc(Cn2c(NC3CCN(Cc4ccc(CSCCNc5ncccn5)o4)CC3)nc3ccccc32)cc1` [Compound 50], the ED50 turned out to be 0.16 mg/kg.
Take `O=CNCCN1CCC(Nc2nc3ccccc3n2Cc2ccco2)CC1` [Compound 46, N-[2-[4-[[1-(2-furanylmethyl)-1H-benzimidazol-2-yl]amino]-1-piperidinyl]ethyl]formamide hemihydrate]: the ED50 came out at 0.16 mg/kg.
As for `COc1ccc(CCN2CCC(Nc3nc4ccccc4n3Cc3cscn3)CC2)cc1` [Compound 17, N-[1-[2-(4-methoxyphenyl)ethyl]-4-piperidinyl]-1-(4-thiazolyl)-methyl)-1H-benzimidazol-2-amine dihydrobromide. dihydrate], the ED50 turned out to be 0.08 mg/kg.
For the compound `COc1ccc(CCN2CCC(Nc3nc4cnccc4n3Cc3ccc(F)cc3)CC2)cc1` [Compound 3, 1-[(4-fluorophenyl)methyl]-N-[1-[2-(4-methoxyphenyl)ethyl]-4-piperidinyl]-1H-imidazo[4,5-c]pyridin-2-amine], the ED50 amounted to 0.16 mg/kg.
For `O=c1oc2ccccc2cc1CCN1CCC(Nc2nc3cccnc3n2Cc2ccco2)CC1` [Compound 15, 3-[2-[4-[[3-(2-furanylmethyl)-3H-imidazo[4,5-b]pyridin-2-yl]amino]-1-piperidinyl]ethyl]-2H-1-benzopyran-2-one], the ED50 came out at 0.01 mg/kg.
As for `CN(C)C(=S)NCCN1CCC(Nc2nc3ccccc3n2Cc2ccc(F)cc2)CC1` [Compound 31], the ED50 was found to be 0.08 mg/kg.
On to `CN(C)C(=NC#N)NCCN1CCC(Nc2nc3ccccc3n2Cc2ccc(F)cc2)CC1` [Compound 25], for which the ED50 came out at 0.08 mg/kg.
Regarding `O.O=c1oc2ccccc2cc1CCN1CCC(Nc2nc3cccnc3n2Cc2ccc(F)cc2)CC1` [Compound 16, 3-[2-[4-[[3-[(4-fluorophenyl)methyl]-3H-imidazo [4,5-b]pyridin-2-yl]-amino]-1-piperidinyl]ethyl]-2H-1-benzopyran-2-one monohydrate], the ED50 came out at 0.04 mg/kg.
On to `O=c1oc2ccccc2cc1CCN1CCC(Nc2nc3cccnc3n2Cc2ccccn2)CC1` [Compound 7, 3-[2-[4-[[3-(2-pyridinylmethyl)-3H-imidazo[4,5-b]pyridin-2-yl]amino]-1-piperidinyl]ethyl]-2H-1benzopyran-2-one trihydrochloride.dihydrate], for which the ED50 is 0.04 mg/kg.
Take `CNC(=O)Nc1ccc(CCN2CCC(Nc3nc4ccccc4n3Cc3ccc(F)cc3)CC2)cc1` [Compound 57, N-[4-[2-[4-[[1-[(4-fluorophenyl)methyl]-1H-benzimidazol-2-yl]amino]-1-piperidinyl]ethyl]phenyl]-N'methylurea]: the ED50 was found to be 0.08 mg/kg.
Turning to `COC(CNC(=NC#N)NCCN1CCC(Nc2nc3ccccc3n2Cc2ccc(F)cc2)CC1)OC.O=C(O)/C=C/C(=O)O.O=C(O)/C=C/C(=O)O` [Compound 24, N"-cyano-N-(2,2-dimethoxyethyl)-N'-[2-[4-[[1-[(4-fluorophenyl)methyl]-1H-benzimidazol-2-yl]amino]-1-piperidinyl]ethyl]guanidine (E)-2-butenedioate(1:2)], the ED50 worked out at 0.16 mg/kg.
As for `O=c1oc2ccccc2cc1CCN1CCC(Nc2nc3ccccc3n2Cc2cscn2)CC1` [Compound 6, 3-[2-[4-[[1-(4-thiazolylmethyl)-1H-benzimidazol-2-yl]amino]-1-piperidinyl]ethyl]-2H-1-benzopyran-2-one dihydrochloride.sesquihydrate], the ED50 came out at 0.16 mg/kg.
On the same count and under the same terms, next, `CS(=O)(=O)Nc1ccc(CCN2CCC(Nc3nc4ccccc4n3Cc3ccc(F)cc3)CC2)cc1` [Compound 53, N-4-[2-[4-[[1-[(4-fluorophenyl)methyl]-1H-benzimidazol-2-yl]amino]-1-piperidinyl]ethyl] methanesulfonamide monohydrate]: 0.16 mg/kg.
Same read-out and setting: next, `COc1ccc(CCN2CCC(Nc3nc4ccccc4n3Cc3cnccn3)CC2)cc1` [Compound 13, N-[1-[2:(4-methoxyphenyl)ethyl]-4-piperidinyl]-1-[(2-pyrazinyl)methyl]-1H-benzimidazol-2-amine]: 0.04 mg/kg.
On to `Fc1ccc(Cn2c(NC3CCN(CCNC(=S)N4CCOCC4)CC3)nc3ccccc32)cc1` [Compound 28, N-[2-[4-[[1-[(4-fluorophenyl)methyl]-1H-benzimidazol-2-yl]amino]-1-piperidinyl]ethyl]-4-morpholinecarbothioamide], for which the ED50 was 0.16 mg/kg.
